The values below come from patent US11360104B2, “Microbial-based biosensors” (TRUSTEES OF BOSTON UNIVERSITY, priority 2017, dated 2022).

One series deals with Pimelobacter simplex. Nature of the series: Solvent and steroid exposure growth curves. The source says:
(§1) In order to identify steroid binding Transcription Factors, a whole transcriptome RNA sequencing (RNA-Seq) screen was developed (FIG. 7). The growth of Pimelobacter simplex bacteria was profiled with respect to the starting inoculation density, solvent toxicity, and the addition of steroids (FIG. 16). […] P. simplex bacteria were screened against the steroid solvents ethanol (EtOH) and dimethyl sulfoxide (DMSO). […] Steroid growth curves were similarly performed using a starting OD of 0.005 and constant solvent dosing with titrations of steroids. […] P. simplex bacteria were grown in the presence of 700 μM testosterone, 21.88 μM progesterone, 87.50 μM estrone, 21.88 μM 17β-estradiol, 21.88 μM hydrocortisone, or 175.00 μM aldosterone concentrations were selected for comparison.
In order to properly determine the doubling time of the strain, growth curves were performed. All growth curves were done in 100 μL per well volumes in 96 well flat clear bottom black polystyrene TC-treated microplates which were individually wrapped with a lid and sterile (Corning #3603). Measurements were done by an Infinite M200 Pro (TECAN) spectrophotometer at the temperature suited for P. simplex. Readings were performed over 96 cycles of 15 minutes each at 600 nm absorbance with 25 flashes in a 3×3 (XY-Line) type reads per well. In between reads there was orbital shaking at 150 rpm frequency for a total of 10 minutes. In order to characterize the growth alone, a ½ serial dilution of 9 concentrations from 0.5-0.0020 OD600 nm were prepared in the respective media. Then each concentration was measured as previously described using a microplate reader (TECAN) and normalized against a media background control in technical triplicate. Afterward, an appropriate starting concentration of cells was chosen with a substantially long lag-phase, linear log phase, and a plateau of stationary-phase.
Once an appropriate starting cell concentration was chosen, a secondary growth curve was performed to test the toxicity levels of the solvents used to dissolve steroids of interest. Since the steroids used are heavily hydrophobic, they often need to be dissolved in organic solvents such as DMSO or ethanol which are toxic to bacteria at high concentrations. P. simplex was incubated under microplate reader conditions previously mentioned at a starting OD determined by the first growth curve with DMSO, ethanol, or H2O at ½ serial dilutions for a total of eight concentrations (50-0.39%) tested in technical triplicate. Two controls were included per solvent; a positive control without solvent and a media control which allowed for appropriate normalization. Solvent exposure growth curves allowed for choosing the maximum amount of solvent concentration that strains would sustain while maintaining relative viability in order to determine a range of steroid concentrations which could be used.
A tertiary growth curve was performed to test the toxicity levels of steroid specific to P. simplex. The strain was incubated under microplate reader conditions previously mentioned at a starting OD determined by the first growth curve and the highest solvent concentration corresponding to the steroid of interest with steroid at ½ serial dilutions for a total of seven concentrations tested in singlet. Testosterone, progesterone, 17β-estradiol, hydrocortisone, and aldosterone were all dissolved in ethanol while estrone was dissolved in DMSO. Three controls were included for each steroid; a positive control with the highest tolerable solvent concentration (%), a positive control with media, and a media control which allowed for normalization. Steroid exposure growth curves allowed for choosing the maximum amount of steroid concentration that P. simplex would sustain while maintaining relative viability.

Series [1] relates to P. simplex bacteria (steroid responsive genome island, SRGI). Nature of the series: RNA-Seq screen of steroid treated P. simplex against solvent controls. Type of series: cell-based, Pimelobacter simplex. The following applies: Log2 fold change vs solvent control.
Text: as §1
(§2) Using accession gene tags, genes were annotated for steroid relevant enzymes or transcription factors. […] Allosteric TF binding sequences are often palindromes and typically located near the start of its gene location in an intergenic space. With such a design, the allosteric TF can regulate itself or the open reading frame (ORF) near it in response to its effector molecule. […] Once identified, the TFs were cloned and recombinantly expressed for thorough characterization.
(§3) Cells were grown in 6 mL volumes of media at the OD, solvent, and steroid concentrations found from the growth curves in 14 mL polypropylene round-bottom tubes (Corning #352059) in technical duplicate. The same controls as in the steroid exposure growth curve were used for setting up RNA extraction samples. The cells were incubated at their corresponding temperature with continuous orbital shaking at 150 rpm until the end of lag-phase, mid-log phase, or stationary phase from the start of inoculation. Afterward, samples were removed and a 1:1 ratio of RNAprotect Bacteria Reagent (Qiagen #76506) was added followed by spinning down at 4° C. for 10 minutes at 4000 g. Supernatant was removed and the pellet re-suspended in 300 μL of RNAprotect and transferred into 2.0 mL Safe-Lock Tubes (Eppendorf #3101). The samples were then spun down once again at 4° C. for 10 minutes at 10000 g. Once the supernatant has been removed the samples were placed on ice and ready for RNA extraction. RNA extraction was done by Qiacube (Qiagen #9001292) set to the RNeasy Protect Bacteria Mini Kit protocol of bacterial cell pellet with enzymatic lysis. Tube A was prepared as described except with the addition of 150 mg/mL lysozyme (Sigma-Aldrich #L6876) and 20 mg/mL proteinase K (Roche #03115879001) all diluted in 1xTE buffer. RNA samples were subsequently quantified using Qubit RNA HS Assay Kit (Thermo Fisher Scientific #Q32852) and analyzed using a RNA 6000 Pico Kit (Agilent 5067-1513) in a 2100 Bioanalyzer (Agilent G2939A). RNA samples were either immediately used for RNA-Seq library preparation or stored long-term at −80° C.
(§4) RNA-Seq libraries were then produced from these samples using a slightly modified ScriptSeq v2 RNA-Seq Library Preparation Kit (Illumina 455A/22124) ensuring use of unique index primers through ScriptSeq Index PCR Primers (Sets 1-4) 48 rxns/set (Illumina #SSIP1234).

A further series addresses PinR (Nocardioides simplex (Pimelobacter simplex), UniProt A0A0A1DUF2). Nature of the series: Cross-reactivity assay of steroids using sensor 3. The following applies: for % cross-reactivity: relative to progesterone; for % cross-reactivity / P (slope of fit): sensor 3, HEPES 1×. Type of series: biochemical. As for the experimental part: The cross-reactivity of progesterone regarding the different steroids was calculated with the following equation:
Description for a typical experiment, using a molar ratio of QD/TF/DNA=1/4/18.
50 uL of the sensor (QD/TF/DNA) was then splitted in 3×9 centrifuge tubes to which 10 uL of progesterone at the desired concentration is added. […] A 384 well plate was filled with 60 uL of each solution. The fluorescence intensity was monitored on a spectrofluorimeter from 535 nm to 800 nm exciting at 400 nm, equipped with a 450 nm long-pass filter in emission.

Series [2] has as its system steroid responsive genome island (SRGI). Nature of the series: Whole transcriptome RNA-Seq of steroid treated P. simplex. Type of series: cell-based, Pimelobacter simplex. To be noted: P. simplex exposed to steroid vs solvent control, Log2 fold change.
Text: as §1, §2, §3, §4

The subject of series [3] is Pimelobacter simplex PinR (AIY20223.2; SEQ ID NO: 1), his-tagged (AIY-his6). Nature of the series: QD-FRET steroid sensor (QD-PinR + DNA-Cy5), steroid-induced TF-DNA unbinding. In kind it is biochemical. As for the experimental part: Fluorescent spectra were analyzed using MATLAB (Mathworks) and were fitted with a sum of 2 Gaussians (D=QD: FWHM=27 nm, λmax=607 nm; A=DNA-Cy5: FWHM=40 nm, λmax=669 nm). The area of each Gaussian was extracted and FD and FA are obtained respectively for the fluorescence of QD (donor) and Cy5 (acceptor).
Raw dose-response curves were obtained by plotting FA/FD as a function of the steroid concentration. Sensor output is the normalization of the fluorescent spectra of the donor and acceptor according to the following equation: […]
Non-normalized dose-response were fitted with Origin Pro 8 software with the non-linear equation: […]
The cross-reactivity of progesterone regarding the different steroids was calculated with the following equation: […]
CdSe/CdS/ZnS QDs were coated with a zwitterionic polymer bearing histamine anchoring functions (P1, SI). Once the hydrophobic QDs were transferred into H2O using a biphasic ligand exchange, his-tagged TFs were self-assembled on the QD surface to produce the QD-TF. Addition of the double stranded, Cy5-labeled TF-binding sequence completed probe assembly as the oligo binds to the TF in the absence of progesterone (PRG). The molar ratios of the QD, TF, and DNA in the sensor were controlled through the stoichiometric ratios of the mixed parts.
Two fluorescent spectra were recorded, one from the QDs and one from the Cy5 due to the FRET.
First, the DNA1 (most binding sequence) has been used to build the first biosensor, named sensor 1. For this sensor, a ratio of QD/TF/DNA of 1/4/18 was chosen. […] In order to homogenize the fluorescent signals in between batches and different sensor variations, FA/FD was normalized to give the signal output. Signal output is then plotted against PRG concentration to give a dose-response curve (FIG. 9C) This curve was fitted with the non-linear equation XX to obtain the half-maximal inhibitory concentration (IC50) (Table 13).
Description for a typical experiment, using a molar ratio of QD/TF/DNA=1/4/18. QDs in (275 uL, 0.15 uM in HEPES 1×, pH 7.6 with 1% BSA) were mixed with AIY-his6 (275 uL, 0.6 uM in HEPES 1× pH 7.6) at room temperature for 45 min. Then, the double-stranded DNA labelled with a Cy5 fluorescent probe at the 3′ and 5′ ends (275 uL, 2.7 uM in HEPES 1× pH 7.6) was added to the mixture. After 30 min, 220 uL of HEPES 1× pH 7.5 and 330 uL of 5× binding buffer (25 mM MgCl2, 25% glycerol, and 250 mg/L Invitrogen™ UltraPure™ Salmon Sperm DNA in Tris-HCl 0.1M) were added and the mixture is left 15 more min at RT.
50 uL of the sensor (QD/TF/DNA) was then splitted in 3×9 centrifuge tubes to which 10 uL of progesterone at the desired concentration is added. As such, the final concentration of QD/TF/DNA for the measurements is 25 nM/100 nM/450 nM. A 384 well plate was filled with 60 uL of each solution. The fluorescence intensity was monitored on a spectrofluorimeter from 535 nm to 800 nm exciting at 400 nm, equipped with a 450 nm long-pass filter in emission.

Setting [4] is: P. simplex, starting OD 0.005, constant solvent.

Read-outs that look alike come from different tables or passages of the source.

Sequence of PinR (A0A0A1DUF2 entry or part of it): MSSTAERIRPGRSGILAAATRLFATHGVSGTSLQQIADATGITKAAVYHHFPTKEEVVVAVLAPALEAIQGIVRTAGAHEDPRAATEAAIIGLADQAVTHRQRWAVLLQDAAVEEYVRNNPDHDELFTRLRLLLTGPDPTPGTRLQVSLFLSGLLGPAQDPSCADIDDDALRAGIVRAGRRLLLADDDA

The IC50 is the point on the concentration scale where inhibition reaches its midpoint. High values mean weaker potency in that assay, low ones greater potency in that assay. Turning to `C[C@]12CCC(=O)C=C1CC[C@@H]1[C@@H]2[C@@H](O)C[C@@]2(C)[C@H]1CC[C@]2(O)C(=O)CO` [CRT, Hydrocortisone], the “highest steroid concentration exhibiting normal growth profile” value in the series with Pimelobacter simplex stood at 21.88 µM. The “upregulation of genes inside the SRGI (in words)” value (from here on “upregulation … (in words)”) in series [1] was “upregulation of genes inside the SRGI were observed”. Further, on PinR, the IC50 worked out at 180 ± 19 nM, the “% cross-reactivity” value was 33 ± 3% and the “P (slope of fit)” value stood at 1.23 ± 0.13. Besides, the “upregulation of genes inside the SRGI” value in series [2] was “observed”.

For `C[C@]12CC[C@@H]3c4ccc(O)cc4CC[C@H]3[C@@H]1CC[C@@H]2O` [ESD, 17β-Estradiol], in series [3] (QD:TF:oligo 1:4:6, [QD]=50 nM), the “effect on sensor binding/unbinding (in words)” value is on record as “no impact on the sensor binding/unbinding”. Further, in series [1], the “upregulation … (in words)” value is “not when exposed to 17β-estradiol and estrone”.

Take `C[C@]12CC[C@H]3[C@@H](CCC4=CC(=O)CC[C@@]43C)[C@@H]1CC[C@@H]2O` [testosterone, Testosterone]: the “highest steroid concentration exhibiting normal growth profile” value in the series on Pimelobacter simplex (setting [4]) is 700 µM. The “upregulation … (in words)” value in series [1] was “upregulation of genes inside the SRGI were observed”. The “upregulation of genes inside the SRGI” value in series [2] is recorded as “observed”.

With `C[C@]12CCC(=O)C=C1CC[C@@H]1[C@@H]2[C@@H](O)C[C@]2(C=O)[C@@H](C(=O)CO)CC[C@@H]12` [ALD, Aldosterone], the “highest steroid concentration exhibiting normal growth profile” value in the series on Pimelobacter simplex turned out to be 175.00 µM. Also, the “upregulation … (in words)” value in series [1] was “upregulation of genes inside the SRGI were observed”. In addition, on PinR, the IC50 turned out to be 289 ± 36 nM, the “% cross-reactivity” value came to 20 ± 2% and the “P (slope of fit)” value is 1.65 ± 0.28. In series [2], the “upregulation of genes inside the SRGI” value is given as “observed”.

On to `C[C@]12CC[C@@H]3c4ccc(O)cc4CC[C@H]3[C@@H]1CCC2=O` [ESN, Estrone], for which the “highest steroid concentration exhibiting normal growth profile” value in the series with Pimelobacter simplex (setting [4]) turned out to be 87.50 µM. Moreover, the “cross-reactivity (in words)” value in series [3] (sensor 3 in HEPES 1×, 0 to 10 uM steroid) is recorded as “No cross-reactivity was observed”. Moreover, in series [1], the “upregulation … (in words)” value is “not when exposed to 17β-estradiol and estrone”.
